Results on eight molecules are retold here after patent US20070021360A1, “Compositions, formulations and kit with anti-sense oligonucleotide and anti-inflammatory steroid and/or obiquinone for treatment of respiratory and lung disesase” (priority 2001, published 2007).

What is called Kd is the concentration at which binding is half-saturated. Lower therefore signals a tighter complex.

The target of series [1] is T1, adenosine A1 receptor (Oryctolagus cuniculus, UniProt P34970).
T1 construct: Airway smooth muscle tissue was dissected from each rabbit and a membrane fraction prepared; from tissue; host or cells: rabbit airway smooth muscle, crude plasma membranes
T1 sequence (P34970 1-328): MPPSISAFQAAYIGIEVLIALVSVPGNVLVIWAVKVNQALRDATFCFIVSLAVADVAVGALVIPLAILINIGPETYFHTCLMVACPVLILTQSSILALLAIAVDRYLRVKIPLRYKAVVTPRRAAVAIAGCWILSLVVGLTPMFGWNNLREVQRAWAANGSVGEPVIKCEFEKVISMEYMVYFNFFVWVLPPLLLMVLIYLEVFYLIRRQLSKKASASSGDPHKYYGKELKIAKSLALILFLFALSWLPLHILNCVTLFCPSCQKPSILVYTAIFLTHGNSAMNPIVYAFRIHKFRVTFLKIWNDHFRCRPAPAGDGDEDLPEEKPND
To be noted: mismatch controls; Nyce & Metzger (1997); cited from earlier work.

Series [2] deals with adenosine A1 receptor. Description: Adenosine-induced bronchoconstriction (PC50 Adenosine) in allergic rabbits. To be noted: allergic rabbits; cross-over experiment; 20 mg total aerosolized oligo. It is filed as in vivo. The method, then: A fortuitous hoology between the rabbit and human DNA sequences within the adenosine A1 gene overlapping the initiation codon permitted the use of the phosphorothioate anti-sense oligonucleotides initially designed for use against the human adenosine A1 receptor in a rabbit model. Neonatal New Zealand white Pasteurella-free rabbits were immunized intraperitoneally within 24 hours of birth with 312 antigen units/ml house dust mite (D. farinae) extract (Berkeley Biologicals, Berkeley, Calif.), mixed with 10% kaolin. Immunizations were repeated weekly for the first month and then biweekly for the next 2 months. At 3-4 months of age, eight sensitized rabbits were anesthetized and relaxed with a mixture of ketamine hydrochloride (44 mg/kg) and acepromazine maleate (0.4 mg/kg) administered intramuscularly. The rabbits were then laid supine in a comfortable position on a small molded, padded animal board and intubated with a 4.0-mm intratracheal tube (Mallinkrodt, Inc., Glens Falls, N.Y.). A polyethylene catheter of external diameter 2.4 mm with an attached latex balloon was passed into the esophagus and maintained at the same distance (approximately 16 cm) from the mouth throughout the experiments. The intratracheal tube was attached to a heated Fleisch pneumotachograph (size 00; DOM Medical, Richmond, Va.), and flow was measured using a Validyne differential pressure transducer (Model DP-45161927; Validyne Engineering Corp., Northridge, Calif.) driven by a Gould carrier amplifier (Model 11-4113; Gould Electronic, Cleveland, Ohio). The esophageal balloon was attached to one side of the differential pressure transducer, and the outflow of the intratracheal tube was connected to the opposite side of the pressure transducer to allow recording of transpulmonary pressure. Flow was integrated to give a continuous tidal volume, and measurements of total lung resistance (RL) and dynamic compliance (Cdyn) were calculated at isovolumetric and flow zero points, respectively, using an automated respiratory analyzer (Model 6; Buxco, Sharon, Conn.). Animals were randomized and on Day 1 pretreatment values for PC50 were obtained for aerosolized adenosine. Anti-sense (HAdA1AS) or mismatched control (HAdA1MM) oligonucleotides were dissolved in sterile physiological saline at a concentration of 5000 μg (5 mg) per 1.0 ml. […] Aerosols of either saline, adenosine, or anti-sense or mismatch oligonucleotides were generated by an ultrasonic nebulizer (DeVilbiss, Somerset, Pa.), producing aerosol droplets 80% of which were smaller than 5:m in diameter. In the first arm of the experiment, four randomly selected allergic rabbits were administered anti-sense oligonucleotide and four the mismatched control oligonucleotide. On the morning of the third day, PC50 values (the concentration of aerosolized adenosine in mg/ml required to reduce the dynamic compliance of the bronchial airway 50% from the baseline value) were obtained and compared to PC50 values obtained for these animals prior to exposure to oligonucleotide. Following a 1 week interval, animals were crossed over, with those previously administered mismatch control oligonucleotide now administered anti-sense oligonucleotide, and those previously treated with anti-sense oligonucleotide now administered mismatch control oligonucleotide. Treatment methods and measurements were identical to those employed in the first arm of the experiment. […] For the purpose of calculation, PC50 values for these animals were set at 20 mg/ml. The values given therefore represent a minimum figure for anti-sense effectiveness. Actual effectiveness was higher.
Aerosols of either adenosine (0-20 mglnml), or anti-sense or one of two mismatch oligonucleotides (5 mg/ml) were separately prepared with an ultrasonic nebulizer (Model 646, DeVilbiss, Somerset, Pa.), which produced aerosol droplets, 80% of which were smaller than 5:m in diameter. […]

Another series deals with adenosine A3 receptor. Description: Inflammatory cells in bronchial lavage fluid after dust mite allergen. It is filed as in vivo, rabbit. The conditions noted are these: allergic rabbits, 20 mg oligo, lavage 3 hours later. How it is done:
The number of inflammatory cells was determined in their bronchial lavage fluid 3 hours later by counting at least 100 viable cells per lavage. The effect of anti-sense oligos III (SEQ ID NO: 9377) and IV (SEQ ID NO: 9378) upon granulocytes, and upon total cells in bronchial lavage were assessed following exposure to dust mite allergen. […] As is known in the art, granulocytes, especially eosinophils, are the primary inflammatory cells of asthma and the administration of anti-sense oligos III (SEQ ID NO: 9377) and IV (SEQ ID NO: 9378) reduced their numbers by 40% and 66%, respectively. […] This is also an important indicator of anti-inflammatory activity by the present anti-adenosine A3 agents of the invention. Inflammation is known to underlie bronchial hyperresponsiveness and allergen-induced bronchoconstriction in asthma. Both anti-sense oligonucleotides III (SEQ ID NO: 9377) and IV (SEQ ED NO: 9378), which are targeted to the adenosine A3 receptor, are representative of an important new class of anti-inflammatory agents which may be designed to specifically target the lung receptors of each species.

Another series deals with Intracellular Adenosine. Description: In vivo effect on adenosine levels in rat tissues (HPLC). Details: species or system Fischer 344 rats. How it is done: Folinic acid (50 mg/kg) was administered intraperitoneally once daily for fourteen days. […] Hearts were removed from animals and flash frozen in liquid nitrogen with 10 seconds of death. Liver and lungs were removed en bloc and flash frozen with 30 seconds of death. Brain tissue was subsequently dissected.

Series [3] has as its system HT-29 SF cells. Description: Reversal of DHEA-mediated growth inhibition. The format is cell-based, human. The conditions noted are these: 25 μM DHEA; supplement in medium; 48 hours.
The subject of series [4] is HT-29 SF cells. Description: Reversal of DHEA effect on cell cycle. The format is cell-based, human. The conditions noted are these: 25 FM DHEA; supplement in medium; 48 and 72 hours.
Series [5] has as its target B2 bradykinin receptor (rabbit airway smooth muscle membranes) (rabbit) (UniProt Q28642). Description: radioligand binding, airway smooth muscle membranes; rabbits treated with A1MM1 mismatch control, 20 mg.
For series [6] the target is unchanged. Description: radioligand binding, airway smooth muscle membranes; rabbits treated with A1MM1 mismatch control, 2 mg.
Series [7] has the same target. Description: radioligand binding, airway smooth muscle membranes; rabbits treated with B2MM mismatch control, 2 mg.
Series [8] has the same target. Description: radioligand binding, airway smooth muscle membranes; rabbits treated with B2A bradykinin receptor anti-sense oligo, 2 mg.
Series [9] has the same target. Description: radioligand binding, airway smooth muscle membranes; rabbits treated with B2MM mismatch control, 20 mg.
Series [10] shares this target. Description: radioligand binding, airway smooth muscle membranes; rabbits treated with B2MM mismatch control, 0.2 mg.
The target is the same in series [11]. Description: radioligand binding, airway smooth muscle membranes; rabbits treated with A1 receptor anti-sense oligo, 20 mg.
The target is the same in series [12]. Description: radioligand binding, airway smooth muscle membranes; saline control rabbits.
For series [13] the target is unchanged. Description: radioligand binding, airway smooth muscle membranes; rabbits treated with B2A bradykinin receptor anti-sense oligo, 20 mg.
The target is the same in series [14]. Description: radioligand binding, airway smooth muscle membranes; rabbits treated with A1 receptor anti-sense oligo, 0.2 mg.
For series [15] the target is unchanged. Description: radioligand binding, airway smooth muscle membranes; rabbits treated with A1 receptor anti-sense oligo, 2 mg.
Series [16] shares this target. Description: radioligand binding, airway smooth muscle membranes; rabbits treated with B2A bradykinin receptor anti-sense oligo, 0.2 mg.
Setting [17] is: once daily 14 days, DHEA 300 mg/kg, methyltestosterone 40 mg/kg (120 mg/kg in M + F.A.), folinic acid 50 mg/kg, mean ± SEM.
Where [18] appears, read: daily for two weeks, DHEA or high dose methyltestosterone.
The mark [19] stands for this setting: methyltestosterone 120 mg/kg, mean ± SEM.

B2 bradykinin receptor (rabbit airway smooth muscle membranes) (rabbit), sequence (Q28642 whole entry): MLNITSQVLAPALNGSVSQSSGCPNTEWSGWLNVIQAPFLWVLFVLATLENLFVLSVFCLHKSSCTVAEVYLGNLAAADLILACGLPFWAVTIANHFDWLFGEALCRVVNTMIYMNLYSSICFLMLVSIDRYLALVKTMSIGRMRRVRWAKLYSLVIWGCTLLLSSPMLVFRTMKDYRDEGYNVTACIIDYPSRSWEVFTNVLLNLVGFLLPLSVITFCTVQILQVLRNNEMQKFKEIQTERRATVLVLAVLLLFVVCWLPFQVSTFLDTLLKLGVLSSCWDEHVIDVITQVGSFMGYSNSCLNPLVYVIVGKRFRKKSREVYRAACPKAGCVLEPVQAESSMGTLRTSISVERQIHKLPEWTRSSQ

In the case of “5′-GATGGAGGCGGGCATGGCGGG-3 [Oligo A1MM3, reference compound]”, the “effect upon any of the targeted receptors (A1, A2 or B2)” value at adenosine A1 receptor [1] was “absolutely no effect”. Moreover, in the series with adenosine A1 receptor [2], the “effect on PC50 Adenosine value” is listed as “no effect”.

As to “5′-GGC CCA GGG CCA GCC-31 (antisense GGCCCAGGGCCAGCC; all phosphorothioate, sugars by position and methylation of C not given here) [Oligo IV, targets adenosine A3 receptor mRNA +386 to +401]”, in the series with adenosine A3 receptor, the “reduction of granulocyte numbers in bronchial lavage” value is 66% and the “reduction of total number of cells in bronchial lavage fluid” value is recorded as 40%.

Regarding `Nc1nc(=O)c2c([nH]1)NCC(CNc1ccc(C(=O)N[C@@H](CCC(=O)O)C(=O)O)cc1)N2C=O` (mixture of isomers) [Folinic Acid (F.A.), Folinic acid], the “effect on adenosine levels when administered alone” value in the series with Intracellular Adenosine (folinic acid 50 mg/kg intraperitoneally) was “increase in adenosine levels for all organs studied”. Moreover, the “effect of co-administration on steroid-mediated adenosine depletion” value in the series with Intracellular Adenosine (folinic acid co-administered with DHEA or methyltestosterone) is given as “completely abrogated steroid-mediated adenosine depletion”. Also, in the series on Intracellular Adenosine (setting [17]), the “Intracellular Adenosine, Brain” value was determined as 0.72 ± 0.09 nmol/mg protein and the “Intracellular Adenosine, Heart” value is listed as 12.4 ± 2.1 nmol/mg protein.

`CC(C)CCC[C@@H](C)[C@H]1CC[C@H]2[C@@H]3CC=C4C[C@@H](O)CC[C@]4(C)[C@H]3CC[C@]12C` [CH, cholesterol]: in the series with HT-29 SF cells [3], the “reversal of DHEA-induced growth inhibition” value was “no such effect”. Besides, in the series with HT-29 SF cells [4], the “prevention of DHEA-induced S phase depletion” value was “very little effect at 48 hours and no effect at 72 hours”.

As for `C[C@@](O)(CCO)CC(=O)O` [MVA, mevalonic acid], the “reversal of DHEA-induced growth inhibition” value with HT-29 SF cells [3] is “partially overcome”. Further, the “prevention of DHEA-induced S phase depletion” value with HT-29 SF cells [4] is recorded as “partially prevented this effect in the initial 48 hours but not after 72 hours”.

Regarding `C[C@]12CCC(=O)C=C1CC[C@@H]1[C@@H]2CC[C@@]2(C)[C@H]1CC[C@]2(C)O` [Methyltestosterone, methyltestosterone], in the series with Intracellular Adenosine (setting [18]), the “depletion of adenosine in brain” value amounted to 34% and the “depletion of adenosine in heart” value is 22%. Also, in the series on Intracellular Adenosine (in vivo), the “Intracellular Adenosine, Brain” value was 0.42 ± 0.06 nmol/mg protein and the “Intracellular Adenosine, Heart” value turned out to be 8.3 ± 1.0 nmol/mg protein. In the series with Intracellular Adenosine (setting [19]), the “Intracellular Adenosine, Brain” value came to 0.32 ± 0.03 nmol/mg protein and the “Intracellular Adenosine, Heart” value was found to be 6.0 ± 0.4 nmol/mg protein.

In the case of `CC(C)=CCC/C(C)=C/CC/C(C)=C/CC/C=C(\C)CC/C=C(\C)CCC=C(C)C` [SQ, squalene], the “reversal of DHEA-induced growth inhibition” value with HT-29 SF cells [3] is “no such effect”.

With [3H]NPC 17731 (peptide), the Kd was 0.35 nM in series [5]; 0.38 nM in [6]; 0.37 nM in series [7]; 0.34 nM in series [8]; 0.41 nM in [9]; 0.36 nM in series [10]. The Kd in series [11] worked out at 0.39 nM; in series [12], 0.39 nM; in series [13] it was 0.38 nM; in series [14], 0.34 nM; in series [15], 0.41 nM; in series [16], 0.35 nM.
